The chromatographic logP is a lipophilicity value derived from retention on a column. Low readings indicate a more hydrophilic compound, high ones a more lipophilic compound. In general, inhibition refers to the change of the read-out against control, counted positive when it falls.

Where only a bound is given, the exact number is not on record here.

The nature of data set [1]: LogP by HPLC on reversed phase columns (EEC directive 79/831 Annex V.A8). As to conditions: reversed phase HPLC columns; method [a]. It counts as physicochemical. The essentials:
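LogP derived from retention time, interpolated linearly between bracketing alkan-2-one standards (3 to 16 carbons). Where several values exist for one method, all are listed with "+"; UV spectra 200–400 nm at peak maxima gave lambda-max.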

In data set [2] the test system is salicylate responsive promoter sequence of the PR1 (pathogenesis-related protein I) gene (AT2G14610). Put plainly: Induction of defense gene expression in Arabidopsis thaliana (PR1 promoter-GFP reporter plants). It is filed as in vivo. As to conditions: 72 h, 300 ppm, 3rd day after spraying, mock treated leaves set as 1.00, read-out: relative fluorescence value. The essentials:
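Transgenic A. thaliana carrying GFP under the salicylate-responsive PR1 promoter, grown five days, then sprayed with compounds. Whole-plant fluorescence imaged and quantified on day 3 post-spray, expressed relative to mock-treated leaf background set at 1.00.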

In data set [3] the test system is Colletotrichum lindemuthianum. Put plainly: In vivo preventive test on Colletotrichum lindemuthianum (Anthracnose on bean). The note with it: Colletotrichum lindemuthianum, 144 h, sprayed 72 hours before inoculation, evaluated 6 days after inoculation, read-out: efficacy. In a few lines:
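Young bean plants were sprayed with compound in acetone/DMSO/Tween diluted in water, then inoculated 72 h later with C. lindemuthianum spores. Incubation was 24 h at 20 °C/100% RH, then 5 days at 20 °C/90% RH. Efficacy scored 6 days post-inoculation: 0% equals solvent-treated control, 100% means no disease.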

Another data set concerns Peronospora parasitica. The experiment in a line: In vivo preventive test on Peronospora parasitica (Crucifer downy mildew) on cabbage. As to conditions: Hyaloperonospora parasitica, 120 h, sprayed 72 hours before inoculation, evaluated 5 days after inoculation, read-out: efficacy; for pest or weed control at 31 ppm: 31 ppm of active ingredient; for pest or weed control at 125 ppm: 125 ppm of active ingredient. In a few lines: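 Preventive protocol: spore inoculation followed compound spraying by 72 h, with 5 days' incubation at 20 °C and 100% relative humidity. Disease was rated 5 days after inoculation against solvent-only plants (0% = control level, 100% = disease-free).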

A further data set has as its system Uromyces appendiculatus. The experiment in a line: In vivo preventive test on Uromyces appendiculatus (bean rust). The note with it: 240 h, sprayed 72 hours before inoculation, evaluated 10 days after inoculation, read-out: efficacy; for pest or weed control at 31 ppm: 31 ppm of active ingredient; for pest or weed control at 125 ppm: 125 ppm of active ingredient. In a few lines:
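Young bean plants sprayed with compound in acetone/DMSO/Tween diluted in water, then inoculated 72 h later with spore suspension. Incubated 24 h at 20° C., 100% RH, then 9 days at 20° C., 70-80% RH. Efficacy scored 10 days post-inoculation, 0% = untreated-control level, 100% = no disease.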

The test system of data set [4] is Pseudomonas syringae pv. tomato. The experiment in a line: In vivo preventive test on Pseudomonas syringae pv. tomato (bacterial speck on tomato). The note with it: 125 ppm of active ingredient, sprayed 72 hours before inoculation, evaluated 5 or 6 days after inoculation, read-out: efficacy. How it is done:
The tested active ingredients were prepared by homogenization in a mixture of acetone/Dimethyl sulfoxide/Tween®, and then diluted with water to obtain the desired active material concentration.
The young plants of tomato were treated by spraying the active ingredient prepared as described above. Control plants were treated only with an aqueous solution of acetone/Dimethyl sulfoxide/Tween®.
After 72 hours, the plants were contaminated by spraying the leaves with an aqueous bacteria suspension of Pseudomonas syringae pv. tomato. The contaminated tomato plants were incubated for 4 days in saturated atmosphere at 22° C. day/20° C. night−70% HR and then for 1 or 2 days at 22° C. day/20° C. night at 70-80% relative humidity.
The test was evaluated 5 or 6 days after the inoculation. 0% means an efficacy which corresponds to that of the control plants while an efficacy of 100% means that no disease was observed.

The subject of another data set is Alternaria alternata. The experiment in a line: Alternaria alternata in vitro cell test. The note with it: 120 h, 5 days incubation, read-out: efficacy (inhibition of fungal growth; no direct activity); for inhibition at 5 ppm: 5 ppm of active ingredient; for inhibition at 20 ppm: 20 ppm of active ingredient. It counts as cell-based. The essentials: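 A. alternata spores in glucose/peptone/yeast-extract liquid medium were exposed to DMSO-solubilized compound (final DMSO ≤1%). After 5 days incubation, mycelium growth read spectrometrically; inhibition derived from absorbance relative to fungicide-free control wells.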

The test system of data set [5] is Colletotrichum lindemuthianum. Put plainly: Colletotrichum lindemuthianum in vitro cell test. It is filed as cell-based. The note with it: 144 h, 5 ppm of active ingredient, 6 days incubation, read-out: efficacy (inhibition of fungal growth; no direct activity). The essentials:
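Inhibition of spore germination and mycelial growth in liquid culture, read spectrometrically after 6 days incubation. Compounds added from DMSO (final ≤1%) to spores in glucose/peptone/yeast-extract medium; absorbance compared with untreated controls.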

Data set [6] concerns Xanthomonas campestris pv. campestris. The experiment in a line: Xanthomonas campestris pv. campestris in vitro cell test. It is filed as cell-based. As to conditions: 24 h of incubation, read-out: efficacy (inhibition of bacteria growth; no direct activity); for inhibition at 5 ppm: 5 ppm of active ingredient; for inhibition at 20 ppm: 20 ppm of active ingredient. In a few lines: (§1)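 Bacteria from liquid pre-culture diluted to set OD in LB broth and exposed to compounds dissolved in DMSO (final ≤1%). After 24 h, growth read by absorbance; inhibition derived relative to compound-free control wells.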

Data set [7] relates to Pseudomonas syringae pv. tomato. Put plainly: Pseudomonas syringae pv. tomato in vitro cell test. It is filed as cell-based. As to conditions: 20 ppm of active ingredient, 24 h of incubation, read-out: efficacy (inhibition of bacteria growth; no direct activity). In a few lines: as §1

The compound `CCOC(=O)C(NC(=O)c1sc(Cl)c(Cl)c1C)C1CC1` (stereo not shown) [I.083] registered a chromatographic logP in [1] of 3.76. Moreover, in [2], the fold induction at 300 ppm was above 2. Besides, the pest or weed control at 500 ppm (in [3] (500 ppm of active ingredient); in the data set with Peronospora parasitica (500 ppm of active ingredient); in the data set on Uromyces appendiculatus (500 ppm of active ingredient)) was 90 to 100% throughout. For the same compound, the pest or weed control at 31 ppm in the data set with Peronospora parasitica and in the data set with Uromyces appendiculatus was 90 to 100% in each case. Also, the results for the pest or weed control at 125 ppm (in the data set on Peronospora parasitica; in the data set on Uromyces appendiculatus; in data set [4]) were 90 to 100%, 90 to 100% and 70 to 79%, respectively. Moreover, the inhibition at 5 ppm (in the data set on Alternaria alternata; in data set [5]; in data set [6]) was at most 30% throughout. Besides, the inhibition at 20 ppm (with Alternaria alternata; in data set [6]; in [7]) was at most 30% throughout.

Regarding `COC(=O)C(NC(=O)c1sc(Cl)c(Cl)c1C)c1cccs1` (stereo not shown) [I.165], the chromatographic logP in [1] is 3.81. In [2], the fold induction at 300 ppm is above 2. Besides, the pest or weed control at 31 ppm in [3] (31 ppm of active ingredient) was 80 to 89%; in the data set with Peronospora parasitica it was 90 to 100%; with Uromyces appendiculatus it was 90 to 100%. Also, the pest or weed control at 125 ppm in data set [3] (125 ppm of active ingredient) fell in the range of 80 to 89%; in the data set on Peronospora parasitica it was 90 to 100%; in the data set with Uromyces appendiculatus it was 90 to 100%; in data set [4] it was 80 to 89%. Also, the inhibition at 5 ppm (in the data set with Alternaria alternata; in data set [5]; in data set [6]) was at most 30% throughout. Moreover, the inhibition at 20 ppm (in the data set with Alternaria alternata; in data set [6]; in data set [7]) was at most 30% in each case.

The values are drawn from patent publication US12509437B2, “Substituted thiophene carboxamides and derivatives thereof as microbicides” (Bayer Aktiengesellschaft, priority 2019, dated 2025).
